Values belong to the molecule of their own block, whether it stands above or below them.
Experiments:
A2A receptor [1] = target: T1, A2A receptor (Homo sapiens, UniProt P29274); test: A2aR antagonism IC50, cAMP TR-FRET (Lance Ultra) in HEK-293 cells, NECA as agonist; format: cell-based; settings: A2AR IC50 (nM) (@5 nM NECA), HEK-293 cells expressing A2A receptor; agonist NECA 5 nM (EC90); inhibition of cAMP;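 also: compounds tested from 10 µM down to 0.08 nM in buffer with Rolipram at room temperature, TR-FRET cAMP signal read 1 h after adding Eu-cAMP tracer and ULight anti-cAMP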
T1 construct: host or cells: HEK-293
From the text: Adenosine A2A receptors and Adenosine A2B receptors induce the production of cAMP when activated/stimulated by an agonist like adenosine or 5′-(N-Ethylcarboxamido) adenosine (NECA). A Time-Resolved Fluorescence Energy Transfer (TR-FRET) assay was used to show the inhibition of this cAMP production in HEK cells upon treatment with compounds of the Formula I of the present disclosure.
HEK-293 cells expressing A2A receptor (#ES-011-C) or A2B receptor (#ES 013-C) were obtained from PerkinElmer. Cells were maintained in DMEM medium supplemented with 10% FBS and 200 μg/mL of G418 at 37° C. and 5% CO2. The cells were cultured in antibiotic free medium for a period of 16-20 hours prior to the assay. All subsequent steps of the assay are performed at room temperature (22-24° C.). The cells were harvested at about 80% confluency by gentle flushing with PBS, recovered by centrifugation and resuspended in stimulation buffer at the concentration of 5.0×10^6 cells/mL.
The assays were conducted in a stimulation buffer containing 1×DMEM, 5 mM HEPES, 0.1% BSA stabilizer and 20-30 μM Rolipram. Serial dilutions of compounds were made in stimulation buffer to achieve a final concentration of high micromolar (10 μM to 0.08 nM) in the reaction volume of 10 μL. The total reaction volume was 10 μL (5 μL of cells, 2.5 μL of antagonist and 2.5 μL of agonist). The stimulation was ended, and the reaction completed by adding 5 μL of 4× Eu-cAMP tracer working solution and 5 μL of 4× ULight-anti-cAMP working solution. The TR-FRET signal was measured after 1-hour incubation using a Tecan M1000 reader.

A2A receptor [2] = target: T1, A2A receptor; test: A2aR antagonism IC50, cAMP TR-FRET in HEK-293 cells, high concentration of adenosine (30 μM); format: cell-based; settings: HEK-293 cells expressing A2A receptor, agonist adenosine 30 μM, 2% HSA, inhibition of cAMP;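 also: compounds added 10 min before adenosine, then 30 min stimulation at room temperature in buffer with 100 µM rolipram and 30 µM EHNA, signal read 1 h after detection reagents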
Method: (§1) A Time-Resolved Fluorescence Energy Transfer (TR-FRET) assay was used to show the inhibition of this cAMP production in HEK cells upon treatment with compounds of the Formula I of the present disclosure.
(§2) HEK-293 cells expressing A2A receptor (#ES-011-C) or A2B receptor (#ES 013-C) were obtained from PerkinElmer. Cells were maintained in DMEM medium supplemented with 10% FBS and 200 μg/mL of G418 at 37° C. and 5% CO2. The cells were cultured in antibiotic free medium for a period of 16-20 hours prior to the assay. All subsequent steps of the assay are performed at room temperature (22-24° C.). […] About 1500 cells per well were pre-incubated for 10 minutes with the compounds of the present invention before adding the agonist Adenosine at a high concentration (30 μM) for a total stimulation time of 30 minutes. […] The assays were conducted in a stimulation buffer containing 1×DMEM, 5 mM HEPES, 2% Human serum albumin (HSA), 100 μM Rolipram and 30 μM erythro-9-(2-hydroxy-3-nonyl) adenine (EHNA). Serial dilutions of compounds were made in stimulation buffer to achieve a final concentration of high micromolar in a reaction volume of 10 μL. The total reaction volume was 10 μL (5 μL of cells, 2.5 μL of antagonist and 2.5 μL of agonist). […] The stimulation was ended, and the reaction completed by adding 5 μL of 4× Eu-cAMP tracer working solution and 5 μL of 4× ULight-anti-cAMP working solution. The TR FRET signal was measured after 1-hour incubation using a Tecan M1000 or a PerkinElmer Victor Nivo plate reader.

A2B receptor [3] = target: T2, A2B receptor (Homo sapiens, UniProt P29275); test: A2bR antagonism IC50, cAMP TR-FRET (Lance Ultra) in HEK-293 cells, NECA as agonist; format: cell-based; parameters: host or cells: HEK-293; settings: HEK-293 cells expressing A2B receptor; agonist NECA 30 nM (EC90); inhibition of cAMP
T2 sequence (P29275 1-332): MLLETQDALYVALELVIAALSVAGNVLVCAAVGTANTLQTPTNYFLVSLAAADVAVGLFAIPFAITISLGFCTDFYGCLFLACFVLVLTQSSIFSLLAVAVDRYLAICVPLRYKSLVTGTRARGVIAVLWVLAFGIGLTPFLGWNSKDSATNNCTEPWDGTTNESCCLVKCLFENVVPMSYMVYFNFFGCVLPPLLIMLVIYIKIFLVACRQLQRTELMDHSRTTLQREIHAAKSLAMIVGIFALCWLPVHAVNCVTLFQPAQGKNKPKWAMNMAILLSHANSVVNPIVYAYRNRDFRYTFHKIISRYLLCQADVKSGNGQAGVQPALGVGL

A2B receptor [4] = target: T2, A2B receptor; test: A2bR antagonism IC50, cAMP TR-FRET in HEK-293 cells, high concentration of adenosine (30 μM); settings: A2BR IC50 (nM) (@30 μM Adenosine), HEK-293 cells expressing A2B receptor; agonist adenosine 30 μM; 2% HSA; inhibition of cAMP;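 also: compounds preincubated 10 min with cells, then adenosine stimulation 30 min at room temperature in buffer with Rolipram 100 µM and EHNA 30 µM, TR-FRET read after 1 h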
Method: as §1, §2

[5] = read-out: A2AR IC50 (nM) (@30 μM Adenosine)

T1 sequence (P29274 whole entry): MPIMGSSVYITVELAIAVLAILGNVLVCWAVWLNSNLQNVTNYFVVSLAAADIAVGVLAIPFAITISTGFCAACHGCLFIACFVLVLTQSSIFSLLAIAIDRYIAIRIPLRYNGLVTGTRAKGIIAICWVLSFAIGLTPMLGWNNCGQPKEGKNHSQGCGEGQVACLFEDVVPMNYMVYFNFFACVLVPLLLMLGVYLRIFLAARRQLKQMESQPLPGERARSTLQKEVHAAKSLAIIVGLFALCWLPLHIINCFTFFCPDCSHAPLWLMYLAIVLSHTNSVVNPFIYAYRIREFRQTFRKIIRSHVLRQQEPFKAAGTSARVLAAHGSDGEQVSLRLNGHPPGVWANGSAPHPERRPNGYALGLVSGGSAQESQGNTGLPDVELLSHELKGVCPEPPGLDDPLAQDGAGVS

Structure (SMILES): Cc1nn2c(N)c(C#N)c(NCCc3nc(C4(CO)CC4)cs3)nc2c1Cl [Example 61, 7-amino-3-chloro-5-((2-(4-(1-(hydroxymethyl)cyclopropyl)thiazol-2-yl)ethyl)amino)-2-methylpyrazolo[1,5-a] pyrimidine-6-carbonitrile]
IC50 (A2A receptor [1]): < 1 nM | IC50 (A2A receptor [2]; A2AR IC50 (nM) (@30 μM Adenosine)): 574 nM | IC50 (A2B receptor [3]): 24 nM

Structure (SMILES): Cc1nn2c(N)c(C#N)c(NCCc3cccc(C4CC4CO)n3)nc2c1Cl (centres unmarked) [Example 38, 7-amino-3-chloro-5-((2-(6-(2-(hydroxymethyl)cyclopropyl)pyridin-2-yl)ethyl)amino)-2-methylpyrazolo[1,5-a]pyrimidine-6-carbonitrile]
IC50 (A2A receptor [1]): 0.1 nM | IC50 (A2A receptor [2]; [5]): 178 nM | IC50 (A2B receptor [3]): 4.4 nM

Structure (SMILES): Cc1nn2c(N)c(C#N)c(NCCc3cccc(CO)n3)nc2c1Cl [Example 33, 7-amino-3-chloro-5-((2-(6-(hydroxymethyl)pyridin-2-yl)ethyl)amino)-2-methylpyrazolo[1,5-a]pyrimidine-6-carbonitrile]
IC50 (A2A receptor [1]): 0.38 nM | IC50 (A2A receptor [2]; [5]): 206 nM | IC50 (A2B receptor [3]): 0.97 nM | IC50 (A2B receptor [4]): 1420 nM

Structure (SMILES): CCc1c(C)nn2c(N)c(C#N)c(NCCc3nn(C(C)(C)CO)cc3F)nc12 [Example 62]
IC50 (A2A receptor [1]): 5 nM | IC50 (A2B receptor [3]): 42 nM

Structure (SMILES): CCc1c(C)nn2c(N)c(C#N)c(NCCc3ccc(OC)cn3)nc12 [Example 19, 7-Amino-3-ethyl-5-((2-(5-methoxypyridin-2-yl)ethyl)amino)-2-methylpyrazolo [1,5-a]pyrimidine-6-carbonitrile]
IC50 (A2A receptor [1]): 2.1 nM | IC50 (A2B receptor [3]): 36 nM

Structure (SMILES): CCc1c(C)nn2c(N)c(C#N)c(NC(C)Cc3ccccn3)nc12 (single isomer, unassigned) [Example 22, 7-Amino-3-ethyl-2-methyl-5-((1-(pyridin-2-yl)propan-2-yl)amino) pyrazolo[1,5-a]pyrimidine-6-carbonitrile]
IC50 (A2A receptor [1]): 2.5 nM | IC50 (A2B receptor [3]): 2.2 nM

Structure (SMILES): CCc1cccc(CNc2nc3c(C)c(C)nn3c(N)c2C#N)n1 [Example 7, 7-amino-5-{[(6-ethylpyridin-2-yl)methyl]amino}-2,3-dimethylpyrazolo[1,5-a] pyrimidine-6-carbonitrile]
IC50 (A2A receptor [1]): 0.59 nM | IC50 (A2B receptor [3]): > 3000 nM

Structure (SMILES): Cc1nn2c(N)c(C#N)c(NCCc3cccc(C(C)(C)CO)n3)nc2c1Cl [Example 65, 7-amino-3-chloro-5-((2-(6-(1-hydroxy-2-methylpropan-2-yl)pyridin-2-yl)ethyl)amino)-2-methylpyrazolo[1,5-a]pyrimidine-6-carbonitrile]
IC50 (A2A receptor [1]): < 1 nM | IC50 (A2A receptor [2]; [5]): 227 nM | IC50 (A2B receptor [3]): 27 nM

Structure (SMILES): Cc1cccc(CN(C)c2nc3c(C)c(C)nn3c(N)c2C#N)n1 [Example 8, 7-amino-2,3-dimethyl-5-{methyl[(6-methylpyridin-2-yl)methyl]amino}pyrazolo [1,5-a] pyrimidine-6-carbonitrile]
IC50 (A2A receptor [1]): 46 nM | IC50 (A2B receptor [3]): 1680 nM

Structure (SMILES): CCc1c(C(F)F)nn2c(N)c(C#N)c(NCCc3ccn(C(C)(C)CO)n3)nc12 [Example 48, 7-amino-2-(difluoromethyl)-3-ethyl-5-((2-(1-(1-hydroxy-2-methylpropan-2-yl)-1H-pyrazol-3-yl)ethyl)amino) pyrazolo[1,5-a]pyrimidine-6-carbonitrile]
IC50 (A2A receptor [1]): 2.2 nM | IC50 (A2A receptor [2]; [5]): 7660 nM | IC50 (A2B receptor [3]): 51 nM

Structure (SMILES): Cc1cccc(CCNc2nc3c(C(C)C)c(C)nn3c(N)c2C#N)n1 [Example 28, 7-amino-3-(isopropyl)-2-methyl-5-((2-(6-methylpyridin-2-yl)ethyl)amino) pyrazolo[1,5-a]pyrimidine-6-carbonitrile]
IC50 (A2A receptor [1]): 31 nM | IC50 (A2B receptor [3]): 17 nM

Structure (SMILES): CCc1c(C)nn2c(N)c(C#N)c(N[C@@H](C)c3ccccn3)nc12 [Example 4, (S)-7-Amino-3-ethyl-2-methyl-5-((1-(pyridin-2-yl)ethyl)amino) pyrazolo[1,5-a] pyrimidine-6-carbonitrile]
IC50 (A2A receptor [1]): 25 nM | IC50 (A2B receptor [3]): 1370 nM

Structure (SMILES): CCc1c(C)nn2c(N)c(C#N)c(N[C@@H](C)c3cccc(C)n3)nc12 [Example 5, (S)-7-Amino-3-ethyl-2-methyl-5-((1-(6-methylpyridin-2-yl)ethyl)amino) pyrazolo [1,5-a] pyrimidine-6-carbonitrile]
IC50 (A2A receptor [1]): 0.15 nM | IC50 (A2B receptor [3]): 0.87 nM

The next lines start with the values.

IC50 (A2A receptor [1]): < 0.1 nM | IC50 (A2A receptor [2]; [5]): 260 nM | IC50 (A2B receptor [3]): 3.6 nM | IC50 (A2B receptor [4]): 2380 nM
Structure (SMILES): CCc1cccc(CCNc2nc3c(C)c(C)nn3c(N)c2C#N)n1 [Example 40, 7-amino-5-((2-(6-ethylpyridin-2-yl)ethyl)amino)-2,3-dimethyl pyrazolo [1,5-a] pyrimidine-6-carbonitrile]

IC50 (A2A receptor [1]): 0.8 nM | IC50 (A2A receptor [2]; [5]): 250 nM | IC50 (A2B receptor [3]): 22 nM
Structure (SMILES): Cc1nn2c(N)c(C#N)c(NCCc3ccn(C(C)(C)CO)n3)nc2c1Cl [Example 36, 7-amino-3-chloro-5-((2-(1-(1-hydroxy-2-methylpropan-2-yl)-1H-pyrazol-3-yl)ethyl)amino)-2-methylpyrazolo[1,5-a]pyrimidine-6-carbonitrile]

IC50 (A2A receptor [1]): 0.74 nM | IC50 (A2A receptor [2]; [5]): 250 nM | IC50 (A2B receptor [3]): 8.6 nM | IC50 (A2B receptor [4]): 3790 nM
Structure (SMILES): Cc1nn2c(N)c(C#N)c(NCCc3ccn(C4(CO)CC4)n3)nc2c1C [Example 55, 7-amino-5-((2-(1-(1-(hydroxymethyl)cyclopropyl)-1H-pyrazol-3-yl)ethyl)amino)-2,3-dimethylpyrazolo[1,5-a]pyrimidine-6-carbonitrile]

IC50 (A2A receptor [1]): 0.17 nM | IC50 (A2A receptor [2]; [5]): 348 nM | IC50 (A2B receptor [3]): 2.1 nM | IC50 (A2B receptor [4]): 1290 nM
Structure (SMILES): Cc1nn2c(N)c(C#N)c(NCCc3cccc(C4CC4CO)n3)nc2c1C (centres unmarked) [Example 51, 7-amino-5-((2-(6-(2-(hydroxymethyl)cyclopropyl)pyridin-2-yl)ethyl)amino)-2,3-dimethylpyrazolo[1,5-a]pyrimidine-6-carbonitrile]

IC50 (A2A receptor [1]): 0.4 nM | IC50 (A2A receptor [2]; [5]): 160 nM | IC50 (A2B receptor [3]): 6 nM
Structure (SMILES): Cc1nn2c(N)c(C#N)c(NCCc3cccc(C4(CO)CC4)n3)nc2c1Cl [Example 34, 7-amino-3-chloro-5-((2-(6-(1-(hydroxymethyl)cyclopropyl)pyridin-2-yl)ethyl)amino)-2-methylpyrazolo[1,5-a]pyrimidine-6-carbonitrile]

IC50 (A2A receptor [1]): 0.3 nM | IC50 (A2A receptor [2]; [5]): 117 nM | IC50 (A2B receptor [3]): 9 nM | IC50 (A2B receptor [4]): 829 nM
Structure (SMILES): CCc1c(C)nn2c(N)c(C#N)c(NCCc3ccn(C4CCCC4CO)n3)nc12 (centres unmarked) [Example 115, 7-amino-3-ethyl-5-((2-(1-(2-(hydroxymethyl)cyclopentyl)-1H-pyrazol-3-yl)ethyl)amino)-2-methylpyrazolo[1,5-a]pyrimidine-6-carbonitrile]

IC50 (A2A receptor [1]): 0.15 nM | IC50 (A2A receptor [2]; [5]): 260 nM | IC50 (A2B receptor [3]): 0.87 nM | IC50 (A2B receptor [4]): 2380 nM
Structure (SMILES): CCc1c(C)nn2c(N)c(C#N)c(NCCc3cccc(C)n3)nc12 [Example 17, 7-Amino-3-ethyl-2-methyl-5-((2-(6-methylpyridin-2-yl)ethyl)amino) pyrazolo[1,5-a]pyrimidine-6-carbonitrile]

IC50 (A2A receptor [1]): 0.1 nM | IC50 (A2A receptor [2]; [5]): 81 nM | IC50 (A2B receptor [3]): 2 nM | IC50 (A2B receptor [4]): 700 nM
Structure (SMILES): CCc1c(C)nn2c(N)c(C#N)c(NCCc3ccn(C4CCC4CO)n3)nc12 (racemic) [Example 77, (+−)-7-amino-3-ethyl-5-((2-(1-(2-(hydroxymethyl)cyclobutyl)-1H-pyrazol-3-yl)ethyl)amino)-2-methylpyrazolo[1,5-a]pyrimidine-6-carbonitrile]

IC50 (A2A receptor [1]): 0.88 nM | IC50 (A2B receptor [3]): 73 nM
Structure (SMILES): Cc1ccc(F)c(CCNc2nc3c(C)c(C)nn3c(N)c2C#N)n1 [Example 41, 7-amino-5-((2-(3-fluoro-6-methylpyridin-2-yl)ethyl)amino)-2,3-dimethylpyrazolo[1,5-a]pyrimidine-6-carbonitrile]

IC50 (A2A receptor [1]): 1 nM | IC50 (A2B receptor [3]): 18 nM
Structure (SMILES): CCn1ccc(CCNc2nc3c(C)c(C)nn3c(N)c2C#N)n1 [Example 29, 7-amino-5-{[2-(1-ethyl-1H-pyrazol-3-yl)ethyl]amino}-2,3-dimethylpyrazolo[1,5-a]pyrimidine-6-carbonitrile]

IC50 (A2A receptor [1]): 6.8 nM | IC50 (A2B receptor [3]): 43 nM
Structure (SMILES): Cc1nn2c(N)c(C#N)c(NCCc3ccc(F)cn3)nc2c1C [Example 11, 7-amino-5-((2-(5-fluoropyridin-2-yl)ethyl)amino)-2,3-dimethylpyrazolo[1,5-a]pyrimidine-6-carbonitrile]

IC50 (A2A receptor [1]): 0.92 nM | IC50 (A2B receptor [3]): 16 nM
Structure (SMILES): Cc1nn2c(N)c(C#N)c(NCCc3ccn(CCO)n3)nc2c1Cl [Example 35]

IC50 (A2A receptor [1]): 2.3 nM | IC50 (A2B receptor [3]): 41 nM
Structure (SMILES): Cc1ccc(CCNc2nc3c(C)c(C)nn3c(N)c2C#N)nc1 [Example 10, 7-Amino-2,3-dimethyl-5-((2-(5-methylpyridin-2-yl)ethyl)amino) pyrazolo[1,5-a] pyrimidine-6-carbonitrile]

IC50 (A2A receptor [1]): 5.5 nM | IC50 (A2B receptor [3]): 9.5 nM
Structure (SMILES): CCc1c(C)nn2c(N)c(C#N)c(NCCc3ccc(C)cn3)nc12 [Example 18, 7-Amino-3-ethyl-2-methyl-5-((2-(5-methylpyridin-2-yl)ethyl)amino) pyrazolo[1,5-a]pyrimidine-6-carbonitrile]
